# Results published in the supplement of paper PMC11451515.
# Experiments:
# SEM cells [1] = assay: cell viability relative to DMSO control; higher = less cytotoxic; conditions: 48 h
# Procedure, shortened: (§1)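 In 1536-well plates, 5 μl of leukemia cells were seeded per well: 500 cells/well for NOMO1 or SEM and 1000 cells/well for P12-Ichikawa. Each line had first been adapted for at least four passages in each medium. Library compounds in DMSO were pin-dosed at 11 threefold concentrations between 47 μM and 0.79 nM, and CellTiter-Glo One luminescence was read after 48 h at 37°C. Viability is a per-plate percentage relative to DMSO wells, with cell-free wells as background.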
# NOMO1 = assay: AUC of viability dose-response curve (% viability x log10 dose units); higher = less sensitive; conditions: 48 h
# Procedure, shortened: (§2)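 Over 48 h at 37°C, leukemia cells in 1536-well plates (500 or 1000 cells/well), adapted to each medium, received library compounds in DMSO at 11 threefold doses from 47 μM to 0.79 nM. CellTiter-Glo One luminescence, normalised per plate to DMSO and cell-free wells, was fitted by a four-parameter log-logistic function of log10 dose. The area under the curve was then integrated by trapezoidal rule, after scaling curves above full viability and removing those that failed quality control.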
# P12-Ichikawa [2] = assay: as above; conditions: 48 h
# Procedure, shortened: as §2
# SEM cells [3] = assay: as above; conditions: 48 h
# Procedure, shortened: as §2
# P12-Ichikawa [4] = assay: cell viability relative to DMSO control; higher = less cytotoxic; conditions: HPLM + 10% dialyzed FBS, 48 h
# Procedure, shortened: as §1
# [5] = HPLM + 10% dialyzed FBS, 0.000781 µM
# [6] = HPLM + 10% dialyzed FBS, 0.00234 µM
# [7] = HPLM + 10% dialyzed FBS, 0.00702 µM
# [8] = HPLM + 10% dialyzed FBS, 0.0211 µM
# [9] = HPLM + 10% dialyzed FBS, 0.0632 µM
# [10] = HPLM + 10% dialyzed FBS, 0.19 µM
# [11] = HPLM + 10% dialyzed FBS, 0.569 µM
# [12] = HPLM + 10% dialyzed FBS, 1.71 µM
# [13] = HPLM + 10% dialyzed FBS, 5.12 µM
# [14] = HPLM + 10% dialyzed FBS, 15.4 µM
# [15] = HPLM + 10% dialyzed FBS, 46.1 µM
# [16] = RPMI 5 mM glucose + 10% dialyzed FBS
Structure (SMILES),cell viability (SEM cells [1]; [5]) [%],cell viability (SEM cells [1]; [6]) [%],cell viability (SEM cells [1]; [7]) [%],cell viability (SEM cells [1]; [8]) [%],cell viability (SEM cells [1]; [9]) [%],cell viability (SEM cells [1]; [10]) [%],cell viability (SEM cells [1]; [11]) [%],cell viability (SEM cells [1]; [12]) [%],cell viability (SEM cells [1]; [13]) [%],cell viability (SEM cells [1]; [14]) [%],cell viability (SEM cells [1]; [15]) [%],AUC of viability dose-response curve (NOMO1; HPLM + 10% dialyzed FBS),AUC of viability dose-response curve (NOMO1; RPMI 5 mM glucose + 10% FBS),AUC of viability dose-response curve (NOMO1; [16]),AUC of viability dose-response curve (P12-Ichikawa [2]; HPLM + 10% dialyzed FBS),AUC of viability dose-response curve (P12-Ichikawa [2]; RPMI 5 mM glucose + 10% FBS),AUC of viability dose-response curve (P12-Ichikawa [2]; [16]),AUC of viability dose-response curve (SEM cells [3]; HPLM + 10% dialyzed FBS),AUC of viability dose-response curve (SEM cells [3]; RPMI 5 mM glucose + 10% FBS),AUC of viability dose-response curve (SEM cells [3]; [16]),further results
C[C@]\12CCC(=O)\C=C1[C@@H]3C[C@@H]3[C@@H]4[C@@H]2CC[C@@]5(C)[C@H]4[C@@H]6C[C@@H]6[C@@]57CCC(=O)O7,89.1,97.2,107,123,120,112,106,107,133,107,104,469,477,471,474,468,471,450,451,468,"cell viability (SEM cells [1]; RPMI 5 mM glucose + 10% FBS, 0.000781 µM): 98.6%; cell viability (SEM cells [1]; RPMI 5 mM glucose + 10% FBS, 0.00234 µM): 111%; cell viability (SEM cells [1]; RPMI 5 mM glucose + 10% FBS, 0.00702 µM): 115%; cell viability (SEM cells [1]; RPMI 5 mM glucose + 10% FBS, 0.0211 µM): 117%; cell viability (SEM cells [1]; RPMI 5 mM glucose + 10% FBS, 0.0632 µM): 137%; cell viability (SEM cells [1]; RPMI 5 mM glucose + 10% FBS, 0.19 µM): 146%; cell viability (SEM cells [1]; RPMI 5 mM glucose + 10% FBS, 0.569 µM): 124%; cell viability (SEM cells [1]; RPMI 5 mM glucose + 10% FBS, 1.71 µM): 134%; cell viability (SEM cells [1]; RPMI 5 mM glucose + 10% FBS, 5.12 µM): 119%; cell viability (SEM cells [1]; RPMI 5 mM glucose + 10% FBS, 15.4 µM): 125%; cell viability (SEM cells [1]; RPMI 5 mM glucose + 10% FBS, 46.1 µM): 146%"
NC(=O)c1noc([C@H](CCCC2CCCCC2)CC(=O)NO)n1,,,,,,,,,,,,431,424,441,441,422,421,428,414,429,
COc1ccc(-c2ccc3cc(C(=O)O)ccc3c2)cc1C12CC3CC(CC(C3)C1)C2,,,,,,,,,,,,436,441,387,465,447,458,459,468,459,
CCCCC[C@H](O)/C=C/[C@H]1[C@H](O)CC(=O)[C@@H]1CCCCCCC(=O)O,,,,,,,,,,,,412,455,417,464,445,453,402,399,409,
CC/1=C(\CCN2CCC(CC2)C3=NOC4=C3C=CC(=C4)F)C(=O)N/5CCCCC5=N1,102,91.1,106,103,122,124,72.9,45.9,112,115,110,457,477,472,463,457,476,475,473,468,cell viability (P12-Ichikawa [4]; 0.000781 µM): 125%; cell viability (P12-Ichikawa [4]; 0.00234 µM): 120%; cell viability (P12-Ichikawa [4]; 0.00702 µM): 122%; cell viability (P12-Ichikawa [4]; 0.0211 µM): 118%; cell viability (P12-Ichikawa [4]; 0.0632 µM): 130%; cell viability (P12-Ichikawa [4]; 0.19 µM): 124%; cell viability (P12-Ichikawa [4]; 0.569 µM): 127%; cell viability (P12-Ichikawa [4]; 1.71 µM): 116%; cell viability (P12-Ichikawa [4]; 5.12 µM): 126%; cell viability (P12-Ichikawa [4]; 15.4 µM): 133%; cell viability (P12-Ichikawa [4]; 46.1 µM): 127%
